Converted amounts (≈) assume the structure as drawn. Where two headings read alike, the source gives them in different places.
Columns and labels:
[1] = Oral bioavailability (BA) in monkeys; assay type: in vivo, Macaca fascicularis; settings: male, cynomolgus monkey, blood, 1 mg/kg oral vs jugular vein
Method: To male Macaca fascicularis (3 or 4 year-old) fasted overnight, a solution of the test compound Captisol® was administered into the jugular vein (3 animals) and a solution of Lutrol® F68 was orally administered (3 animals). The dose of both test compounds was 1 mg/kg body weight of the monkey. The amount of Captisol® used was 0.18 mg/kg body weight of the monkey. The amount of Lutrol® F68 used was 0.02 mg/kg body weight of the monkey. The BA value was calculated by the formula below using the integration value (AUCiv(0-∞)) of the blood concentration extrapolated from time 0 to infinity after administration of both test compounds. BA(%)=[[(AUCpo(0-∞))/(dose po)]/[(AUCiv(0-∞))/(dose iv)]]×100 The greater a BA value of the compound shown, the higher the oral bioavailability is.

[2] = system: Staphylococcus aureus; assay: Neutropenic mouse thigh or calf muscle infection model; assay type: in vivo; settings: neutropenic mice, compared with linezolid
Source text: After culture in broth medium (i) suitable diluent of a bacterial suspension of the Staphylococcus aureus strain, or (ii) equivalent mixture of suitable diluent of a bacterial suspension of the Enterococcus faecium strain and a 10% mucin suspension were used as the inoculum. The bacterial suspension was inoculated under anesthesia with a ketamine-xylazine mixture into the thigh or calf muscle of Swiss albino mice or ICR mice (4- to 6-week-old) compromised by the cyclophosphamide administration. The drug was administered to the mice 1 to 8 times at an interval of 3 to 24 hours. The number of bacteria in the thigh or calf muscle was counted for the non-treated group immediately before initial administration of the drug (pre-control), for the non-treated group (post-control) and for the drug-administered group on the next day of administration of the drug and infection. A change in the number of bacteria in the thigh or calf muscle was used as an index of therapeutic effect.

[3] = Solubility in water (JP1 / JP2 fluids); assay type: physicochemical; settings: thermodynamic from solid
How it was run: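 DMSO stock (10 mmol/L) dried down, residue shaken 30 min in JP1 or JP2 fluid after 1 min sonication, then held 1 h dark at room temperature. Filtrate diluted and quantified by UPLC against 100 and 5 μmol/L standards.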

[4] = system: N. gonorrhoeae clinical isolates; assay: Susceptibility of N. gonorrhoeae, agar dilution MIC; assay type: cell-based
Method: The antibacterial activity of the compounds of the present invention against N. gonorrhoeae clinical isolates was tested by the agar dilution method [Clinical and Laboratory Standards Institute, 2016]. The test strains were spread on chocolate agar plates and grown for 20-24 h at 36° C. in 5% carbon dioxide. The test compound dilutions were prepared with broth and agar MIC plates were prepared using GC agar base supplemented with haemoglobin and 1% IsoVitaleX plates. As growth control plates not containing the test compound were also prepared. Colonies grown on plates were suspended with broth to adjust the turbidity to 0.5 McFarland using a densitometer. Suspension (1-2 μL) of the test strains was inoculated onto each agar surface by using a bacterial suspension inoculation apparatus (multipoint inoculator). After aerobic incubation for 20-24 h at 36° C. in 5% carbon dioxide, absence and presence of growth of each strain on growth control plates and test compounds plate were examined with unaided eye. The MIC was determined at which a marked reduction occurs in the appearance of growth on the test plate as compared to that of growth on the aerobic control plates.

[5] = system: P. acnes ATCC 6921; assay: Susceptibility of P. acnes, agar dilution MIC; assay type: cell-based; settings: Cutibacterium acnes, ATCC6921, anaerobic
Method: (§1) The antibacterial activity of the compounds of the present invention against P. acnes clinical isolates was tested by the agar dilution method. The assay was carried out according to the CLSI guidelines document (Clinical and Laboratory Standards Institute, 2012 & 2016). The test strains were spread on supplemented Brucella agar (SBA) plates and grown for 42 to 48 hours at 36° C. under anaerobic condition. The test compound dilutions were prepared with Brucella broth and SBA plates containing dilution of test compound were prepared. As an anaerobic growth control and to check the aerobic contamination, plates not containing the test compound were also prepared. Colonies grown on plates were suspended with Brucella broth to adjust the turbidity to 0.5 McFarland using a densitometer. Suspension (1-2 μL) of the test strains was inoculated onto each agar surface by using a bacterial suspension inoculation apparatus (multipoint inoculator). After anaerobic incubation for 42 to 48 hours at 36° C., absence and presence of growth of each strain on growth control plates and test compounds plate were examined with unaided eye. The MIC was determined at which a marked reduction occurs in the appearance of growth on the test plate as compared to that of growth on the anaerobic control plates.

[6] = system: P. acnes IHMA 103740; assay: Susceptibility of P. acnes, agar dilution MIC; assay type: cell-based; settings: Cutibacterium acnes, IHMA103740, anaerobic
Method: as §1

[7] = system: P. acnes IHMA 775486; assay: Susceptibility of P. acnes, agar dilution MIC; assay type: cell-based; settings: Cutibacterium acnes, IHMA775486, anaerobic
Method: as §1

[8] = system: P. acnes ATCC 6523; assay: Susceptibility of P. acnes, agar dilution MIC; assay type: cell-based; settings: Cutibacterium acnes, ATCC6523, anaerobic
Method: as §1

[9] = Japanese Pharmacopeia First Fluid (JP1), pH 1.2, simulated gastric fluid, read-out: Solubility JP1
[10] = Japanese Pharmacopeia Second Fluid (JP2), pH 6.8, aqueous buffer, read-out: Solubility JP2

| Structure (SMILES) | bioavailability [1] | therapeutic effect against Staphylococcus aureus (number of bacteria in thigh or calf muscle) [2] | solubility at 30 min [3, 9] | solubility at 30 min [3, 10] | MIC [4] | MIC [5] | MIC [6] | MIC [7] | MIC [8] |
| --- | --- | --- | --- | --- | --- | --- | --- | --- | --- |
| CCc1[nH]c(C(=O)N[C@@H]2CCN(c3nnc([C@H](C)O)s3)C[C@@H]2OC)nc1Cl (single isomer, unassigned) [Compound No. 5] | 100% | equivalent to or higher than linezolid | 680 µg/mL (≈ 1640 µM) | 359 µg/mL (≈ 865 µM) | – | – | – | – | – |
| CCc1[nH]c(C(=O)N[C@@H]2CCN(c3nnc(C(C)(C)O)s3)C[C@@H]2OC)nc1Cl [Compound No. 2, 4-Chloro-5-ethyl-N-{(3S,4R)-1-[5-(2-hydroxypropan-2-yl)-1,3,4-thiadiazol-2-yl]-3-methoxypiperidin-4-yl}-1H-imidazole-2-carboxamide] | 85% | equivalent to or higher than linezolid | 706 µg/mL (≈ 1650 µM) | 256 µg/mL (≈ 597 µM) | 0.25 µg/mL (≈ 0.583 µM) | 0.125 µg/mL (≈ 0.291 µM) | 0.125 µg/mL (≈ 0.291 µM) | 0.125 µg/mL (≈ 0.291 µM) | 0.125 µg/mL (≈ 0.291 µM) |

From patent US10399968B2, “Hydroxyalkyl thiadiazole derivatives” (Daiichi Sankyo Company, Limited, priority 2015, dated 2019)
